Assays:
[1] = test system: anti-CsA monoclonal antibody; experiment: Abbott AxSYM CsA immunoassay (FPIA) cross-reactivity; assay type: binding, mouse; conditions: 200 ng/mL cyclosporine; metabolite 250 ng/mL
Description: (§1) Antibody. The anti-CsA monoclonal antibody used in the […]® assay is immobilized on Goat Anti-Mouse (GAM) antibody coated magnetic microparticles. The same anti-CsA antibody is used in soluble form in the Abbott TDx and AxSYM® assays (Abbott Laboratories, Abbott Park, Ill.). Soluble mouse anti-CsA antibody is added directly to GAM microparticles and non-covalent binding occurs by antibody-mediated binding. GAM antibody is passively bound to magnetic polystyrene microparticles and then treated with a water-soluble carbodiimide to fix the antibody on the particle. GAM particles can be prepared using ordinary skill in the art.
(§2) FPIA test methods. Abbott TDx Monoclonal and AxSYM® immunoassays were measured on specimens and calibrators using procedures described in the package inserts. Specimens were extracted with a combination of saponin, organic solvent and Zinc sulfate and precipitated protein was centrifuged down. The clear supernatant was tested using assay reagents (Tracer, Antibody and Assay Diluent). However, in Example 4, the different extraction (pretreatment) methods of TDx and AxSYM® were employed, but all results were generated on […]®.
Cross-reactivities for AM9 (500 ng/mL) were 12.6% for AxSYM®, 25% for CEDIA, and 6% for EMIT.

cyclosporine antibody = experiment: Dade RxLFlex cyclosporine assay cross-reactivity; assay type: binding; conditions: 200 ng/mL cyclosporine; metabolite 1000 ng/mL
[2] = test system: anti-CsA monoclonal antibody; experiment: Abbott TDx Monoclonal CsA immunoassay (FPIA) cross-reactivity; assay type: binding, mouse; conditions: 200 ng/mL cyclosporine; metabolite 250 ng/mL
Description: as §1, §2

[3] = times greater than cyclosporine CsA; cited from earlier work

Compound	Abbott AxSYM cross-reactivity [1]	Dade RxLFlex cross-reactivity (cyclosporine antibody)	Abbott TDx cross-reactivity [2]	in vivo potency relative to cyclosporine CsA [3]
CC[C@@H]1NC(=O)[C@H]([C@H](O)[C@H](C)C/C=C/CO)N(C)C(=O)[C@H](C(C)C)N(C)C(=O)[C@H](CC(C)C)N(C)C(=O)[C@H](CC(C)(C)O)N(C)C(=O)[C@@H](C)NC(=O)[C@H](C)NC(=O)[C@H](CC(C)C)N(C)C(=O)[C@H](C(C)C)NC(=O)[C@H](CC(C)C)N(C)C(=O)CN(C)C1=O [AM19]	not statistically significant	2-3%	not statistically significant	
C=CC[C@@H]1/C=C(\C)C[C@H](C)C[C@H](OC)[C@H]2O[C@@](O)(C(=O)C(=O)N3CCCC[C@H]3C(=O)O[C@H](/C(C)=C/[C@@H]3CC[C@@H](O)[C@H](OC)C3)[C@H](C)[C@@H](O)CC1=O)[C@H](C)C[C@@H]2OC [Tacrolimus, tacrolimus]				50-100 times
